Test system: Stress protein genes
Test: DNA chip mRNA expression in yeast, stress protein genes (Table 6)
Type: cell-based, Saccharomyces cerevisiae S288C
Procedure, shortened: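 Whole-genome yeast DNA chip hybridization (65° C., >12 h) of Cy-labeled cDNA from S288C cells exposed 2 h at 25° C. to a sub-lethal toxicant dose in YPD; value is intensity relative to chemical-free control.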

Oc1cc(Cl)c(Cl)cc1Cl [(6), 2,4,5-trichlorophenol]
The level of expressed mRNA in the presence of chemical substance/The level of expressed mRNA in the absence of chemical substance (yeast gene YAL005C): 1.6 | The level of expressed mRNA in the presence of chemical substance/The level of expressed mRNA in the absence of chemical substance (yeast gene YAL015C): 0.7 | The level of expressed mRNA in the presence of chemical substance/The level of expressed mRNA in the absence of chemical substance (yeast gene YBL075C): 0.8 | The level of expressed mRNA in the presence of chemical substance/The level of expressed mRNA in the absence of chemical substance (yeast gene YBL093C): 0.8 | The level of expressed mRNA in the presence of chemical substance/The level of expressed mRNA in the absence of chemical substance (yeast gene YBR044C): 1.0 | The level of expressed mRNA in the presence of chemical substance/The level of expressed mRNA in the absence of chemical substance (yeast gene YBR054W): 1.1 | The level of expressed mRNA in the presence of chemical substance/The level of expressed mRNA in the absence of chemical substance (yeast gene YBR067C): 1.1 | The level of expressed mRNA in the presence of chemical substance/The level of expressed mRNA in the absence of chemical substance (yeast gene YBR072W): 32.2 | The level of expressed mRNA in the presence of chemical substance/The level of expressed mRNA in the absence of chemical substance (yeast gene YBR126C): 2.9 | The level of expressed mRNA in the presence of chemical substance/The level of expressed mRNA in the absence of chemical substance (yeast gene YBR169C): 4.9 | The level of expressed mRNA in the presence of chemical substance/The level of expressed mRNA in the absence of chemical substance (yeast gene YCL035C): 5.1 | The level of expressed mRNA in the presence of chemical substance/The level of expressed mRNA in the absence of chemical substance (yeast gene YCR021C): 2.2 | The level of expressed mRNA in the presence of chemical substance/The level of expressed mRNA in the absence of chemical substance (yeast gene YCR060W): 3.3 | The level of expressed mRNA in the presence of chemical substance/The level of expressed mRNA in the absence of chemical substance (yeast gene YCR083W): 2.4 | The level of expressed mRNA in the presence of chemical substance/The level of expressed mRNA in the absence of chemical substance (yeast gene YDL022W): 2.1 | The level of expressed mRNA in the presence of chemical substance/The level of expressed mRNA in the absence of chemical substance (yeast gene YDL025C): 0.6 | The level of expressed mRNA in the presence of chemical substance/The level of expressed mRNA in the absence of chemical substance (yeast gene YDR033W): 6.7 | The level of expressed mRNA in the presence of chemical substance/The level of expressed mRNA in the absence of chemical substance (yeast gene YDR077W): 1.0 | The level of expressed mRNA in the presence of chemical substance/The level of expressed mRNA in the absence of chemical substance (yeast gene YDR098C): 1.1 | The level of expressed mRNA in the presence of chemical substance/The level of expressed mRNA in the absence of chemical substance (yeast gene YDR155C): 1.5 | The level of expressed mRNA in the presence of chemical substance/The level of expressed mRNA in the absence of chemical substance (yeast gene YDR258C): 2.4 | The level of expressed mRNA in the presence of chemical substance/The level of expressed mRNA in the absence of chemical substance (yeast gene YDR293C): 0.9 | The level of expressed mRNA in the presence of chemical substance/The level of expressed mRNA in the absence of chemical substance (yeast gene YDR436W): 1.1 | The level of expressed mRNA in the presence of chemical substance/The level of expressed mRNA in the absence of chemical substance (yeast gene YDR513W): 2.1 | The level of expressed mRNA in the presence of chemical substance/The level of expressed mRNA in the absence of chemical substance (yeast gene YDR519W): 1.3 | The level of expressed mRNA in the presence of chemical substance/The level of expressed mRNA in the absence of chemical substance (yeast gene YEL030W): 0.6 | The level of expressed mRNA in the presence of chemical substance/The level of expressed mRNA in the absence of chemical substance (yeast gene YEL039C): 1.5 | The level of expressed mRNA in the presence of chemical substance/The level of expressed mRNA in the absence of chemical substance (yeast gene YER042W): 1.6 | The level of expressed mRNA in the presence of chemical substance/The level of expressed mRNA in the absence of chemical substance (yeast gene YER057C): 1.6 | The level of expressed mRNA in the presence of chemical substance/The level of expressed mRNA in the absence of chemical substance (yeast gene YER103W): 1.7 | The level of expressed mRNA in the presence of chemical substance/The level of expressed mRNA in the absence of chemical substance (yeast gene YER125W): 0.7 | The level of expressed mRNA in the presence of chemical substance/The level of expressed mRNA in the absence of chemical substance (yeast gene YFL014W): 9.3 | The level of expressed mRNA in the presence of chemical substance/The level of expressed mRNA in the absence of chemical substance (yeast gene YFL016C): 1.3 | The level of expressed mRNA in the presence of chemical substance/The level of expressed mRNA in the absence of chemical substance (yeast gene YFL020C): 2.0 | The level of expressed mRNA in the presence of chemical substance/The level of expressed mRNA in the absence of chemical substance (yeast gene YFR052W): 3.2 | The level of expressed mRNA in the presence of chemical substance/The level of expressed mRNA in the absence of chemical substance (yeast gene YGL073W): 1.9 | The level of expressed mRNA in the presence of chemical substance/The level of expressed mRNA in the absence of chemical substance (yeast gene YGL115W): 1.2 | The level of expressed mRNA in the presence of chemical substance/The level of expressed mRNA in the absence of chemical substance (yeast gene YGL181W): 1.9 | The level of expressed mRNA in the presence of chemical substance/The level of expressed mRNA in the absence of chemical substance (yeast gene YGR088W): 1.3 | The level of expressed mRNA in the presence of chemical substance/The level of expressed mRNA in the absence of chemical substance (yeast gene YHL028W): 1.8 | The level of expressed mRNA in the presence of chemical substance/The level of expressed mRNA in the absence of chemical substance (yeast gene YHL046C): 0.8 | The level of expressed mRNA in the presence of chemical substance/The level of expressed mRNA in the absence of chemical substance (yeast gene YHR030C): 0.9 | The level of expressed mRNA in the presence of chemical substance/The level of expressed mRNA in the absence of chemical substance (yeast gene YHR057C): 1.3 | The level of expressed mRNA in the presence of chemical substance/The level of expressed mRNA in the absence of chemical substance (yeast gene YHR104W): 1.2 | The level of expressed mRNA in the presence of chemical substance/The level of expressed mRNA in the absence of chemical substance (yeast gene YIL011W): 0.7 | The level of expressed mRNA in the presence of chemical substance/The level of expressed mRNA in the absence of chemical substance (yeast gene YIL033C): 2.0 | The level of expressed mRNA in the presence of chemical substance/The level of expressed mRNA in the absence of chemical substance (yeast gene YIR037W): 2.7 | The level of expressed mRNA in the presence of chemical substance/The level of expressed mRNA in the absence of chemical substance (yeast gene YIR038C): 2.5 | The level of expressed mRNA in the presence of chemical substance/The level of expressed mRNA in the absence of chemical substance (yeast gene YJL128C): 1.3 | The level of expressed mRNA in the presence of chemical substance/The level of expressed mRNA in the absence of chemical substance (yeast gene YJL158C): 0.5 | The level of expressed mRNA in the presence of chemical substance/The level of expressed mRNA in the absence of chemical substance (yeast gene YJL159W): 1.8 | The level of expressed mRNA in the presence of chemical substance/The level of expressed mRNA in the absence of chemical substance (yeast gene YJL165C): 0.5 | The level of expressed mRNA in the presence of chemical substance/The level of expressed mRNA in the absence of chemical substance (yeast gene YJR045C): 1.2 | The level of expressed mRNA in the presence of chemical substance/The level of expressed mRNA in the absence of chemical substance (yeast gene YJR090C): 1.2 | The level of expressed mRNA in the presence of chemical substance/The level of expressed mRNA in the absence of chemical substance (yeast gene YKL161C): 2.0 | The level of expressed mRNA in the presence of chemical substance/The level of expressed mRNA in the absence of chemical substance (yeast gene YKL163W): 1.1 | The level of expressed mRNA in the presence of chemical substance/The level of expressed mRNA in the absence of chemical substance (yeast gene YKL164C): 1.4 | The level of expressed mRNA in the presence of chemical substance/The level of expressed mRNA in the absence of chemical substance (yeast gene YKL210W): 1.4 | The level of expressed mRNA in the presence of chemical substance/The level of expressed mRNA in the absence of chemical substance (yeast gene YKR053C): 1.1 | The level of expressed mRNA in the presence of chemical substance/The level of expressed mRNA in the absence of chemical substance (yeast gene YLL024C): 1.0 | The level of expressed mRNA in the presence of chemical substance/The level of expressed mRNA in the absence of chemical substance (yeast gene YLL026W): 1.9 | The level of expressed mRNA in the presence of chemical substance/The level of expressed mRNA in the absence of chemical substance (yeast gene YLL039C): 1.5 | The level of expressed mRNA in the presence of chemical substance/The level of expressed mRNA in the absence of chemical substance (yeast gene YLL060C): 1.4 | The level of expressed mRNA in the presence of chemical substance/The level of expressed mRNA in the absence of chemical substance (yeast gene YLR006C): 0.9 | The level of expressed mRNA in the presence of chemical substance/The level of expressed mRNA in the absence of chemical substance (yeast gene YLR109W): 2.1 | The level of expressed mRNA in the presence of chemical substance/The level of expressed mRNA in the absence of chemical substance (yeast gene YLR259C): 0.9 | The level of expressed mRNA in the presence of chemical substance/The level of expressed mRNA in the absence of chemical substance (yeast gene YML007W): 0.5 | The level of expressed mRNA in the presence of chemical substance/The level of expressed mRNA in the absence of chemical substance (yeast gene YML070W): 2.2 | The level of expressed mRNA in the presence of chemical substance/The level of expressed mRNA in the absence of chemical substance (yeast gene YMR021C): 2.2 | The level of expressed mRNA in the presence of chemical substance/The level of expressed mRNA in the absence of chemical substance (yeast gene YMR173W): 5.0 | The level of expressed mRNA in the presence of chemical substance/The level of expressed mRNA in the absence of chemical substance (yeast gene YMR186W): 1.3 | The level of expressed mRNA in the presence of chemical substance/The level of expressed mRNA in the absence of chemical substance (yeast gene YNL064C): 0.8 | The level of expressed mRNA in the presence of chemical substance/The level of expressed mRNA in the absence of chemical substance (yeast gene YNL160W): 5.8 | The level of expressed mRNA in the presence of chemical substance/The level of expressed mRNA in the absence of chemical substance (yeast gene YNL241C): 0.9 | The level of expressed mRNA in the presence of chemical substance/The level of expressed mRNA in the absence of chemical substance (yeast gene YNR076W): 1.2 | The level of expressed mRNA in the presence of chemical substance/The level of expressed mRNA in the absence of chemical substance (yeast gene YOL064C): 1.4 | The level of expressed mRNA in the presence of chemical substance/The level of expressed mRNA in the absence of chemical substance (yeast gene YOL161C): 1.0 | The level of expressed mRNA in the presence of chemical substance/The level of expressed mRNA in the absence of chemical substance (yeast gene YOR008C): 1.1 | The level of expressed mRNA in the presence of chemical substance/The level of expressed mRNA in the absence of chemical substance (yeast gene YOR009W): 0.9 | The level of expressed mRNA in the presence of chemical substance/The level of expressed mRNA in the absence of chemical substance (yeast gene YOR010C): 0.5 | The level of expressed mRNA in the presence of chemical substance/The level of expressed mRNA in the absence of chemical substance (yeast gene YOR027W): 1.6 | The level of expressed mRNA in the presence of chemical substance/The level of expressed mRNA in the absence of chemical substance (yeast gene YOR208W): 1.8 | The level of expressed mRNA in the presence of chemical substance/The level of expressed mRNA in the absence of chemical substance (yeast gene YPL059W): 1.3 | The level of expressed mRNA in the presence of chemical substance/The level of expressed mRNA in the absence of chemical substance (yeast gene YPL106C): 1.6 | The level of expressed mRNA in the presence of chemical substance/The level of expressed mRNA in the absence of chemical substance (yeast gene YPL140C): 0.3 | The level of expressed mRNA in the presence of chemical substance/The level of expressed mRNA in the absence of chemical substance (yeast gene YPL194W): 1.1 | The level of expressed mRNA in the presence of chemical substance/The level of expressed mRNA in the absence of chemical substance (yeast gene YPL223C): 1.5 | The level of expressed mRNA in the presence of chemical substance/The level of expressed mRNA in the absence of chemical substance (yeast gene YPL240C): 1.2 | The level of expressed mRNA in the presence of chemical substance/The level of expressed mRNA in the absence of chemical substance (yeast gene YPR005C): 0.8

Source: patent publication US8192962B2, “Processes for detecting toxic substances” (Daikin Industries, Ltd., priority 2001, dated 2012)
